From patent US7407979B2, “Bioregulatory active ingredient combination” (BASF Aktiengesellschaft, priority 2001, dated 2008)

What was measured:
[1] = tested on: Winter oilseed rape (cv. Pronto); test: Shoot elongation in winter oilseed rape (Example 1); format: in vivo; settings: treated Oct. 19, 2000; for Stage A1: Reduction / Stage A1: rel. length: rating A1 Oct. 26, 2000; for Stage A2: Reduction / Stage A2: rel. length: rating A2 Nov. 16, 2000
Description: The tank mixes employed in Example 1 are prepared by stirring an emulsion concentrate comprising 90 g/l metconazole, of the formula (II), and an aqueous concentrate comprising 600 g/l mepiquat chloride (MQC) using a magnetic stirrer.
Winter oilseed rape (cv. Pronto) was sown in autumn (Sep. 13, 2000) and treated approximately one month later (Oct. 19, 2000) in accordance with the information given in Table 1. A few weeks later, the shoot elongation and the root development were assessed (A1 on Oct. 26, 2000 and A2 on Nov. 16, 2000).

[2] = tested on: Winter oilseed rape (cv. Pronto); test: Root growth and morphological parameters in winter oilseed rape (Example 2); format: in vivo; settings: based on untreated control; for SPAD: green coloration
Description: The formulations employed in Example 2 are prepared by introducing an emulsion concentrate comprising 60 g/l metconazole, of the formula (II), and/or an aqueous concentrate comprising 460 g/l mepiquat chloride in suitable amounts. The combination of mepiquat chloride and metconazole is employed in the form of an aqueous SL readymix comprising 21 g/l metconazole, 300 g/l mepiquat chloride and 610 g/l further formulation auxiliaries.
Winter oilseed rape (cv. Pronto) was sown in autumn (Sep. 13, 2000) and treated approximately one month later (Oct. 19, 2000) in accordance with the information given in Table 2. Some of the plants were harvested in autumn on Dec. 07, 2000, while others were harvested in spring on Apr. 03, 2001 and the following morphological parameters were analyzed: plant length; shoot fresh and dry weight (drying: 24 h at 105° C.); total area of all leaves; SPAP (relative units of green coloration determined using a Minolta chlorophyll-measuring meter SPAP 502); root fresh and dry weight (drying: 24 h at 105° C.); storage root fresh weight; length, surface area and volume of the hair roots, and number of root tips (scanning and WinRhizo determination). The results, each of which is based on the untreated control, are compiled in Table 2, the values for the plants harvested in autumn being shown first and the values for the plants harvested in spring being shown second.

[3] = 400 g/ha, autumn harvest Dec. 07, 2000
[4] = 400 g/ha, spring harvest Apr. 03, 2001
[5] = 28 g/ha, autumn harvest Dec. 07, 2000
[6] = 28 g/ha, spring harvest Apr. 03, 2001
[7] = 84 g/ha, autumn harvest Dec. 07, 2000
[8] = 84 g/ha, spring harvest Apr. 03, 2001

C[N+]1(C)CCCCC1.[Cl-] [MQC, N,N-dimethylpiperidinium chloride]
Stage A1: Reduction ([1]; 400 g/ha): 0%
Stage A1: rel. length ([1]; 400 g/ha): 100
Stage A2: Reduction ([1]; 400 g/ha): 4%
Stage A2: rel. length ([1]; 400 g/ha): 96
Hair root surface area [2, 3]: 131%
Hair root volume [2, 3]: 154%
Leaf surface area [2, 3]: 116%
Number of root tips [2, 3]: 94%
Plant height [2, 3]: 96%
Root hair length [2, 3]: 112%
Shoot dry weight [2, 3]: 112%
Shoot fresh weight [2, 3]: 111%
Storage root fresh weight [2, 3]: 118%
Total root dry weight [2, 3]: 120%
Total root fresh weight [2, 3]: 123%
SPAD [2, 3]: 102; 102
Hair root surface area [2, 4]: 136%
Hair root volume [2, 4]: 157%
Leaf surface area [2, 4]: 103%
Number of root tips [2, 4]: 123%
Plant height [2, 4]: 93%
Root hair length [2, 4]: 123%
Shoot dry weight [2, 4]: 99%
Shoot fresh weight [2, 4]: 114%
Storage root fresh weight [2, 4]: 94%
Total root dry weight [2, 4]: 107%
Total root fresh weight [2, 4]: 112%
SPAD [2, 4]: 102; 102

CC1(C)CCC(Cc2ccc(Cl)cc2)C1(O)Cn1cncn1 (centres unmarked) [Metconazole, metconazole]
Stage A1: Reduction ([1]; 21 g/ha): 19%
Stage A1: rel. length ([1]; 21 g/ha): 81
Stage A2: Reduction ([1]; 21 g/ha): 39%
Stage A2: rel. length ([1]; 21 g/ha): 61
Hair root surface area [2, 5]: 116%
Hair root volume [2, 5]: 125%
Leaf surface area [2, 5]: 84%
Number of root tips [2, 5]: 93%
Plant height [2, 5]: 61%
Root hair length [2, 5]: 107%
Shoot dry weight [2, 5]: 85%
Shoot fresh weight [2, 5]: 82%
Storage root fresh weight [2, 5]: 94%
Total root dry weight [2, 5]: 94%
Total root fresh weight [2, 5]: 92%
SPAD [2, 5]: 107
Hair root surface area [2, 6]: 134%
Hair root volume [2, 6]: 145%
Leaf surface area [2, 6]: 106%
Number of root tips [2, 6]: 112%
Plant height [2, 6]: 91%
Root hair length [2, 6]: 126%
Shoot dry weight [2, 6]: 112%
Shoot fresh weight [2, 6]: 122%
Storage root fresh weight [2, 6]: 115%
Total root dry weight [2, 6]: 128%
Total root fresh weight [2, 6]: 115%
SPAD [2, 6]: 103
Hair root surface area [2, 7]: 97%
Hair root volume [2, 7]: 101%
Leaf surface area [2, 7]: 61%
Number of root tips [2, 7]: 87%
Plant height [2, 7]: 46%
Root hair length [2, 7]: 94%
Shoot dry weight [2, 7]: 67%
Shoot fresh weight [2, 7]: 57%
Storage root fresh weight [2, 7]: 74%
Total root dry weight [2, 7]: 75%
Total root fresh weight [2, 7]: 78%
SPAD [2, 7]: 116
Hair root surface area [2, 8]: 148%
Hair root volume [2, 8]: 183%
Leaf surface area [2, 8]: 127%
Number of root tips [2, 8]: 116%
Plant height [2, 8]: 86%
Root hair length [2, 8]: 129%
Shoot dry weight [2, 8]: 136%
Shoot fresh weight [2, 8]: 150%
Storage root fresh weight [2, 8]: 138%
Total root dry weight [2, 8]: 161%
Total root fresh weight [2, 8]: 150%
SPAD [2, 8]: 104
